{"source": "patent US20230218577A1", "about": "“USE OF HEAT SHOCK PROTEIN INHIBITORS FOR THE TREATMENT OF NEURODEVELOPMENTAL DISORDERS” (The Children's Medical Center Corporation, priority 2020, published 2023)", "key": {"[1]": {"tested_on": "pS6, IGF-IRβ, Akt, PRAS40, Raptor in Tsc2-sh neurons", "assay": "Western blot of PI3K/Akt/mTORC1 signaling components in Tsc2-sh neurons", "assay_type": "cell-based, rat", "description": "Hsp90 is a molecular chaperone that protects its client proteins from degradation, and many of its substrates are oncogenic proteins (Neckers and Workman, Hsp90 molecular chaperone inhibitors: are we there yet?; Clin Cancer Res 18, 64-76 (2012)). Among these, insulin-growth factor-1 Receptor β (IGF-IRβ), Akt, and Raptor are components of the PI3K/mTOR pathway that have been identified as Hsp90 substrates in non-neuronal cells (Basso et al., Akt forms an intracellular complex with heat shock protein 90 (Hsp90) and Cdc37 and is destabilized by inhibitors of Hsp90 function; J Biol Chem 277, 39858-39866 (2002); Ohji et al., Suppression of the mTOR-raptor signaling pathway by the inhibitor of heat shock protein 90 geldanamycin; J Biochem 139, 129-135 (2006)). To test whether Hsp90 affects mTORC1 activity through regulation of IGF-IRβ, Akt, or Raptor in neurons, the expression of these potential client proteins were examined in Tsc2-knockdown neurons treated with vehicle or with a 7-point dose-response curve at a three-fold dilution of 17-AGG (assay endpoint DIV20).\nTo investigate whether Hsp90 could function as a chaperone of IGF-IRβ in neurons, wild-type neurons were treated with 17-AGG and then proteasomal degradation was inhibited using bortezomib (BTZ). As expected, Hsp90 inhibition led to reduced IGF-IRβ levels, and this reduction was prevented with BTZ. […] Without wishing to be bound by theory, it is likely that Hsp90 protects IGF-IRβ against proteasomal degradation. To test whether IGF-IRβ protein stability and signaling may represent a potential mechanism by which Hsp90 inhibition reduces mTORC1 activity, IGF-IRβ activation was assessed by autophosphorylation at Tyr1135/1136. Consistent with mTOR-dependent negative feedback on the RTK/Akt pathway (Zhang et al., S6K1 regulates GSK3 under conditions of mTOR-dependent feedback inhibition of Akt; Molecular cell 24, 185-197 (2006)), IGF-IRβ phosphorylation was reduced in the vehicle-treated Tsc2-sh neurons compared to controls (FIGS. 3G, J). […] (FIGS. 3G, J).\nHippocampi and cortexes from 18-day-old rat embryos (Charles River CD1) were isolated under the microscope and collected in Hank's Balanced Salt Solution containing 10 mM MgCl2, 1 mM kynurenic acid, 10 mM HEPES and penicillin/streptomycin. After 5 min dissociation at 37° C. in 30 U/ml of papain, neurons were mechanically triturated and plated in Neurobasal (NB) medium containing B27 supplement, 2 mM L-glutamine, penicillin/streptomycin and primocin (NB/B27). Biochemical analysis was performed on cortical cultures plated at 1×10^6 cells/well onto six-well plates. Immunofluorescent analysis was performed on hippocampal cultures plated at 20×10^3 cells/well onto 96-well plates. All plates were coated with 20 μg/ml poly-D-lysine (PDL).\nProtein extracts were lysed in 1×SDS (22 mM Tris-HCl pH 6.8, 4% Glycerol, 0.8% SDS, 1.6% β-mercaptoethanol, bromphenol blue) sample buffer, heated to 95° C. for 5 min and stored frozen. Before being subjected to discontinuous gel electrophoresis, equal amounts of all protein lysates were verified by Coomassie gel staining. For immunoblotting, equal amounts of protein lysates were subjected to SDS-PAGE, transferred to Immobilon-P Millipore and incubated in LI-COR blocking solution at RT for 2 hrs. Primary and secondary antibodies were diluted in LI-COR blocking solution to the appropriate concentrations. LI-COR IRDye secondary antibodies were used. All images were acquired using the LI-COR Odyssey Classic imager and associated Image Studio Lite analysis software (version 5.2.5). Quantification of protein expression was performed by densitometry scans of immunoblots using LI-COR Odyssey imaging system.\nWestern blot quantifications were performed by protein normalization using GAPDH as loading control. Level of phosphorylated proteins was expressed as the ratio of phosphorylated/total level after GAPDH normalization. […]"}, "[2]": {"tested_on": "IGF-IRβ, pS6 in wild-type cortical neurons", "assay": "Proteasomal inhibition experiment, Western blot in wild-type cortical neurons", "assay_type": "cell-based, rat", "conditions": "4 μM 17-AGG alone, 24 hrs at DIV20"}, "[3]": {"tested_on": "hspB1 mRNA in Tsc2-sh neurons", "assay": "qPCR of hspB1 mRNA in Tsc2-sh neurons", "assay_type": "cell-based, rat", "conditions": "50 nM between DIV9-13", "method": "Tsc2-sh neurons were treated with 17-AGG and it was observed that increased hspB1 expression was reversed by the same dosing scheme that prevented cilia loss (50 nM between DIV9-13) (FIGS. 6A-D). To determine whether a similar dysregulation is present in the brains of TSC patients, the gene expression data from cortical tubers and unaffected brain tissue (Martin et al., The genomic landscape of tuberous sclerosis complex; Nat Commun 8, 15816 (2017)) was examined.\nTotal RNA was prepared with the RNA kit (Zimo Research) following the instructions of the manufacturer and quantified by a spectrophotometer. A total of 1 μg of poly(A) mRNA was used for reverse transcription using the Reverse Transcriptase (BIO-RAD). Real-time PCRs were performed using Power SYBG Green PCR Master Mix (Applied Biosystems). All quantitative PCR (qPCR) reactions were performed in triplicate and normalized against glyceraldehyde-3-phosphate dehydrogenase (GAPDH). Analysis was performed using QuantStudio™ 3 Real-Time PCR System (Thermo Fisher Scientific). The qPCR cycle was: 95° C. for 10 min followed by 40 cycles at 95° C. for 15 sec and 60° C. for 1 min."}, "[4]": {"tested_on": "Hsp90 (panel of human cancer cell lines)", "conditions": "read-out: mean IC50 against Hsp90, Kelland et al. 1999; cited from earlier work"}, "[5]": {"conditions": "Tsc2-sh neurons, 7-point dose-response, assay endpoint DIV20"}, "[6]": {"conditions": "Tsc2-sh neurons, 17-AGG dose of 4 μM, assay endpoint DIV20"}, "[7]": {"conditions": "Tsc2-sh neurons, dose curve 24 hrs between DIV19-20"}}}
{"compound": "C=CCNC1=C2C[C@@H](C)C[C@H](OC)[C@H](O)[C@@H](C)/C=C(\\C)[C@H](OC(N)=O)[C@@H](OC)C=C/C=C(\\C)C(=O)NC(=CC1=O)C2=O", "note": "[17-AGG, 3 S,5S,6R,7S,8E,10R,11S,12E,14E)-21-(allylamino)-6-hydroxy-5,11-dimethoxy-3,7,9,15-tetramethyl-16,20,22-trioxo-17-azabicyclo[16.3.1]docosa-8,12,14,18,21-pentaen-10-yl] carbamate]", "values": [{"measurement": "Akt levels", "setting": "[1]; [5]", "value": "no effect"}, {"measurement": "Raptor levels", "setting": "[1]; [5]", "value": "no effect"}, {"measurement": "pS6 phosphorylation", "setting": "[1]; [6]", "value": "significantly reduced"}, {"measurement": "total IGF-IRβ protein level", "setting": "[1]; [6]", "value": "significantly reduced"}, {"measurement": "phosphorylation of Akt", "setting": "[1]; [7]", "value": "reduced"}, {"measurement": "phosphorylation of PRAS40", "setting": "[1]; [7]", "value": "reduced"}, {"measurement": "phosphorylation of IGF-IRβ receptor (Tyr1135/1136)", "setting": "[1]; Tsc2-sh neurons, dose curve, DIV19-20", "value": "further reduced"}, {"measurement": "mTORC1 activation", "setting": "[1]; Tsc2 knockdown cultures at DIV13, four days of 17-AGG 5-450 nM", "value": "without any effect"}, {"measurement": "IGF-IRβ levels", "setting": "[2]", "value": "reduced"}, {"measurement": "increased hspB1 expression", "setting": "[3]", "value": "reversed"}, {"measurement": "IC50", "setting": "[4]", "value": "[…]"}]}
